In PMC7158045 (BMC Plant Biology, 2020) one finds ΔTm data, which are given here for 30 compounds.

Counter-ions that a name gives are not always drawn.

Assay in all cases: biochemical
One experiment concerns the target T1, ZmDRIK1-K217-P492 (Zea mays, UniProt C0P4K9).
T1 construct: kinase domain, K217-P492
T1 sequence (C0P4K9 1-514): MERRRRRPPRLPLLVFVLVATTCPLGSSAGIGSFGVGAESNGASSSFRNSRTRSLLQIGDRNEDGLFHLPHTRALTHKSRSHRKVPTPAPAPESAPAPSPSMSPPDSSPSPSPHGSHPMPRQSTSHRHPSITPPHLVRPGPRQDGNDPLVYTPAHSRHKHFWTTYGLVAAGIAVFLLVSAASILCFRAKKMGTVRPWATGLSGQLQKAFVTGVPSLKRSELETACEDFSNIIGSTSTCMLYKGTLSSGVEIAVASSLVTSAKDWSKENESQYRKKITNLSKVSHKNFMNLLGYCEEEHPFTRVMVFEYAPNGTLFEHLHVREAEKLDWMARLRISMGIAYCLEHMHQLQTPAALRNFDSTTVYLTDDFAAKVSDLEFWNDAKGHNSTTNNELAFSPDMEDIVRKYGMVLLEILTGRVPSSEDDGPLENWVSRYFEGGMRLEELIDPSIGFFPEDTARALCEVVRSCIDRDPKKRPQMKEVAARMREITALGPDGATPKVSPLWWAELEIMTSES
Particulars: read-out: dTm B, sheet ZmDRIK1-K217-P492;; DSF, Boltzmann fit, 0.1% DMSO.

Experiment [1] has as its target T2, ZmDRIK1 (DROUGHT RESPONSIVE INACTIVE KINASE 1), kinase domain (Zea mays, UniProt C0P4K9).
T2 construct: gene ZEAMMB73_Zm00001d028770; ZmDRIK1-KD R187-S514 (kinase domain)
T2 sequence (C0P4K9 187-514): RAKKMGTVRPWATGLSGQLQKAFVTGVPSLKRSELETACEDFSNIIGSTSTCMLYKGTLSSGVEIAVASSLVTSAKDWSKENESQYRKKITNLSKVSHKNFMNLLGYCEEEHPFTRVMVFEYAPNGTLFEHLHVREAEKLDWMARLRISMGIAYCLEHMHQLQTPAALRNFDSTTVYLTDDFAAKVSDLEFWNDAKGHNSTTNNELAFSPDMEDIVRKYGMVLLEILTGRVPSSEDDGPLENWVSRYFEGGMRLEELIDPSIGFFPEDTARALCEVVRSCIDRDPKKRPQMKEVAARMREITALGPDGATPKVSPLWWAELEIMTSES
Particulars: read-out: dTm B, sheet ZmDRIK1-R187-S514;; DSF, Boltzmann fit, 0.1% DMSO.

A further experiment deals with T3, ZmDRIK1-R187-P492 (Zea mays, UniProt C0P4K9).
T3 construct: kinase domain, R187-P492
T3 sequence (C0P4K9 1-514): T1 sequence (C0P4K9 1-514)
Particulars: read-out: dTm B, DSF, Boltzmann fit, 0.1% DMSO.

For the next experiment, the target named is T4, ZmDRIK1-K217-S514 (Zea mays, UniProt C0P4K9).
T4 construct: kinase domain, K217-S514
T4 sequence (C0P4K9 1-514): T1 sequence (C0P4K9 1-514)
The following applies: read-out: dTm B, sheet ZmDRIK1-K217-S514;; DSF, Boltzmann fit, 0.1% DMSO.

On to `Nc1ncnc2c1c(-c1cnc3[nH]ccc3c1)nn2C1CCCC1` [PP121], for which the ΔTm at 10 µM on ZmDRIK1-K217-P492 was -1.06 °C; in experiment [1] it was -0.595 °C; on ZmDRIK1-R187-P492, -0.369 °C; on ZmDRIK1-K217-S514 it was -0.432 °C.
For `Cc1cc(F)c(Nc2ncnc3cc(OCc4ccccc4)ccc23)cc1O` [ZM 323881 HCl], in that order: -0.816 °C, -1.06 °C, -1.9 °C and -0.146 °C.
Taken in the same sequence, the figures for `COc1cc2ncnc(Nc3cccc(Cl)c3)c2cc1OC` [AG-1478 (Tyrphostin AG-1478)] were -0.243 °C, -0.676 °C, -0.424 °C and -0.388 °C.
As to `CN([C@@H](Cc1ccc(OS(=O)(=O)c2cccc3cnccc23)cc1)C(=O)N1CCN(c2ccccc2)CC1)S(=O)(=O)c1cccc2cnccc12` [KN-62], the ΔTm at 10 µM was -1.79 °C on ZmDRIK1-K217-P492, -1.39 °C in experiment [1], -1.15 °C at ZmDRIK1-R187-P492 and -0.945 °C on ZmDRIK1-K217-S514.
For `CN1CCN(CCOc2cc(OC3CCOCC3)c3c(Nc4c(Cl)ccc5c4OCO5)ncnc3c2)CC1` [Saracatinib (AZD0530)], in that order: -1.11 °C, -0.646 °C, -0.196 °C and -0.253 °C.
Taken in the same sequence, the figures for `O=c1ncn2nc(Sc3ccc(F)cc3F)ccc2c1-c1c(Cl)cccc1Cl` [VX-745] were -1.03 °C, -0.881 °C, -0.394 °C and -0.414 °C.
On to `CC(C)(C#N)c1ccc(N2C(=O)OCc3cnc4ccc(-c5cnc6ccccc6c5)cc4c32)cc1` [ETP-46464], for which the ΔTm at 10 µM on ZmDRIK1-K217-P492 is -1.05 °C; in experiment [1] it was -0.702 °C; on ZmDRIK1-R187-P492, -0.423 °C; on ZmDRIK1-K217-S514 it was -0.552 °C.
Taken in the same sequence, the figures for `COc1cc(N2CCC(N)CC2)ccc1Nc1ncc(Cl)c(-c2c[nH]c3ccccc23)n1` [AZD3463] were -0.184 °C, -0.307 °C, 0.74 °C and 0.133 °C.
For `Clc1ccc(C2(c3ccc(-c4cn[nH]c4)cc3)CCNCC2)cc1` [AT7867], in that order: -0.759 °C, -0.971 °C, -0.25 °C and 0.339 °C.
Taken in the same sequence, the figures for `CC(C)(C)c1cc(/C=C(\C#N)C(N)=S)cc(C(C)(C)C)c1O` [Tyrphostin AG 879] were -0.358 °C, -0.339 °C, -0.277 °C and 0.259 °C.
On to `CNc1nc(Nc2cnn([C@H]3CCN(C4COC4)C[C@@H]3F)c2Cl)ncc1C(F)(F)F` [GNE-9605], for which the ΔTm at 10 µM at ZmDRIK1-K217-P492 is -0.685 °C; in experiment [1] it was -0.953 °C; at ZmDRIK1-R187-P492 it was -0.334 °C; on ZmDRIK1-K217-S514, -0.718 °C.
Taken in the same sequence, the figures for `Nc1nccc(Oc2ccc(NC(=O)c3c[nH]cc(-c4ccc(F)cc4)c3=O)cc2F)c1Cl` [BMS-794833] were -0.717 °C, -1.96 °C, 0.213 °C and -19 °C.
For `COc1ccc(-c2nc(N3CCOCC3)c3sc(CN(C)c4ncc(C(=O)NO)cn4)cc3n2)cn1` [CUDC-907], in that order: -1.08 °C, -0.531 °C, -0.136 °C and -0.228 °C.
Taken in the same sequence, the figures for `O=C1c2ccc(Nc3ccc(F)cc3F)cc2CCc2ccc(OC[C@H](O)CO)cc21` [Skepinone-L] were -0.992 °C, -0.803 °C, -0.481 °C and -0.642 °C.
With `Nc1ncnc2c1c(-c1cccc(OCc3ccccc3)c1)cn2C1CC(CN2CCCC2)C1` (stereo in doubt) [NVP-ADW742], the ΔTm at 10 µM at ZmDRIK1-K217-P492 is -0.671 °C; in experiment [1] it was -1.07 °C; on ZmDRIK1-R187-P492 it was -0.18 °C; on ZmDRIK1-K217-S514 it was -0.731 °C.
Taken in the same sequence, the figures for `CCCNC(=O)Nc1ccc(Oc2ncnc3cc(OC)c(OC)cc23)cc1Cl` [KRN 633] were -0.52 °C, -1.02 °C, -0.332 °C and -0.102 °C.
For `O=C1Nc2ccccc2/C1=C1/Nc2ccccc2C1=O` [Indirubin], in that order: -1.26 °C, -0.784 °C, -0.337 °C and -0.386 °C.
For `O=C1NC(=O)/C(=C/c2cccc(C(F)(F)F)c2)S1` [SMI-4a], in that order: -1.12 °C, -0.708 °C, 0.139 °C and -0.218 °C.
As to `CCc1cccc(CC)c1NC(=O)N1Cc2[nH]nc(NC(=O)c3ccc(N4CCN(C)CC4)cc3)c2C1` [PHA-680632], the ΔTm at 10 µM at ZmDRIK1-K217-P492 was -0.924 °C; in experiment [1], -0.776 °C; on ZmDRIK1-R187-P492, -0.18 °C; on ZmDRIK1-K217-S514, -0.247 °C.
Take `CCCCOc1c(C(=O)c2c(F)cc(C)cc2F)c[nH]c2nncc1-2` [BMS-265246]: the ΔTm at 10 µM on ZmDRIK1-K217-P492 is -1.05 °C; in experiment [1] it was -0.676 °C; at ZmDRIK1-R187-P492, -0.249 °C; on ZmDRIK1-K217-S514 it was -0.226 °C.
For `Fc1cc(-c2cccc3ncc(-c4cnn(C5CCNCC5)c4)nc23)cc(F)c1CN1CCOCC1` [NVP-BSK805 2HCl], in that order: -0.999 °C, -0.913 °C, -0.0846 °C and -0.602 °C.
Taken in the same sequence, the figures for `CCOc1ccn(-c2ccc(F)cc2)c(=O)c1C(=O)Nc1ccc(Oc2ccnc(N)c2Cl)c(F)c1` [BMS-777607] were -0.979 °C, -1.06 °C, -0.218 °C and -0.662 °C.
Taken in the same sequence, the figures for `CNC(=O)c1cc(Oc2ccc(NC(=O)Nc3cc(C(C)(C)C)nn3-c3ccc4ncccc4c3)c(F)c2)ccn1` [DCC-2036 (Rebastinib)] were -1.25 °C, -1.41 °C, -0.261 °C and -0.422 °C.
As for `CN(C)Cc1cccc(N=C(c2ccccc2)c2c(O)[nH]c3cc(C(=O)N(C)C)ccc23)c1` [BIX 02189], the ΔTm at 10 µM at ZmDRIK1-K217-P492 was 0.0556 °C; in experiment [1] it was -0.921 °C; at ZmDRIK1-R187-P492 it was -0.0835 °C; on ZmDRIK1-K217-S514 it was -0.274 °C.
For `C=CC(=O)Nc1cccc(Nc2nc(Nc3ccc(Oc4ccnc(C(=O)NC)c4)cc3)ncc2F)c1` [CNX-774], in that order: -0.472 °C, -10.9 °C, -1.55 °C and -0.729 °C.
For `C=CC(=O)N1CCN(c2nc(=O)n(-c3c(C)ccnc3C(C)C)c3nc(-c4c(O)cccc4F)c(F)cc23)[C@@H](C)C1` [K-Ras(G12C) inhibitor 9], in that order: -0.935 °C, -0.658 °C, -0.298 °C and -0.321 °C.
Consider `C=CC(=O)N1CCC[C@@H](n2nc(-c3ccc(Oc4ccccc4)cc3)c3c(N)ncnc32)C1` [Ibrutinib (PCI-32765)], for which the ΔTm at 10 µM at ZmDRIK1-K217-P492 is -1.14 °C; in experiment [1], -0.597 °C; on ZmDRIK1-R187-P492, -0.476 °C; on ZmDRIK1-K217-S514, -0.359 °C.
As for `CC(C)(C)c1cc(C=C(C#N)C#N)cc(Br)c1O` [AG-1024], the ΔTm at 10 µM on ZmDRIK1-K217-P492 is -1.09 °C; in experiment [1], -0.562 °C; on ZmDRIK1-R187-P492, -0.615 °C; at ZmDRIK1-K217-S514, -0.233 °C.
As to `N#C/C(=C(/N)Sc1ccc(N)cc1)c1ccccc1C(F)(F)F` [SL-327], the ΔTm at 10 µM at ZmDRIK1-K217-P492 was -0.701 °C; in experiment [1], -1.09 °C; at ZmDRIK1-R187-P492 it was -0.157 °C; on ZmDRIK1-K217-S514, -0.356 °C.
For `CNCc1ccc(-c2cc(-c3nc(-c4ccc(S(=O)(=O)C(C)C)cc4)cnc3N)on2)cc1` [VE-822], in that order: -0.634 °C, -0.91 °C, -0.196 °C and -0.454 °C.
